According to PMC10018702 (Nature chemistry, 2022):

Assays:
[1] = system: cancer cell proliferation; conditions: cited from earlier work
[2] = mouse, in vivo, ip, 2 mg/kg
Eμ-Myc/+ lymphoma cells = assay: Eμ-Myc lymphoma allograft model; conditions: 1.5 or 2.0 mg/kg, intraperitoneal, 3 times per week
[3] = target: T1, eEF1A ternary complex on human ribosomes (Homo sapiens, UniProt P68104); assay: smFRET drug chase experiments; format: binding
T1 sequence (P68104 1-462): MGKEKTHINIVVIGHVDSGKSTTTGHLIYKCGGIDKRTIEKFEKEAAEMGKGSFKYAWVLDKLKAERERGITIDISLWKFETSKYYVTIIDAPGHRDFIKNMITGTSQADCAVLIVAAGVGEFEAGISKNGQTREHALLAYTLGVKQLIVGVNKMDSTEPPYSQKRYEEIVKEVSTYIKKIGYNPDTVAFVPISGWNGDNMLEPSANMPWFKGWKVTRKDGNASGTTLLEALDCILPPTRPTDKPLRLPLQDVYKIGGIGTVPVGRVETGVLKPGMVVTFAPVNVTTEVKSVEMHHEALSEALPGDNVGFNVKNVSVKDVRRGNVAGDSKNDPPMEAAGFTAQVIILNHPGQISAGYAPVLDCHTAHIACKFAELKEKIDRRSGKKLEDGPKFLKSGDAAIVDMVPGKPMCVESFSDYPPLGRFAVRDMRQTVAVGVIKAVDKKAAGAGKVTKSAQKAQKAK

[4] = target: T1, eEF1A ternary complex on human ribosomes; assay: smFRET ternary complex real-time delivery experiment; format: biochemical; conditions: 10 μM drug delivered with ternary complex, 25 °C
HCT116 cells [5] = assay: OPP incorporation assay; conditions: HCT116, 24 h continuous treatment, then 1-h OPP pulse
HCT116 cells [6] = conditions: HCT116, 72 h, alamarBlue
[7] = target: eukaryotic elongation factor-1α (eEF1A) (UniProt P68104); assay: single-molecule FRET chase
[8] = from rebinding constants, chase with 0-10 μM drug

## C=C[C@H](C)C[C@@H]1NC(=O)[C@H]([C@H](O)C(C)C)N(C)C(=O)[C@H](C)N(C)C(=O)[C@@H]([C@@H](C)CC)NC(=O)[C@@H]([C@H](O)C(C)C)NC(=O)[C@H]2CCCCN2C(=O)[C@H](C)N(C)C1=O [A3]
[1]
  concentration inhibiting cancer cell proliferation: low nanomolar concentrations

## C=C[C@H](C)C[C@@H]1NC(=O)[C@H]([C@H](O)C(C)C)N(C)C(=O)[C@H](C)N(C)C(=O)[C@@H]([C@@H](C)CC)NC(=O)[C@@H]([C@H](O)C(C)C)NC(=O)[C@H]2CCCCN2C(=O)[C@H](C)N(C)C1=O [SR-A3]
[2]
  AUCinf, fold higher than ternatin-4: ~ 2.1 fold
  Cmax, fold higher than ternatin-4: ~ 1.7 fold
Eμ-Myc/+ lymphoma cells
  body weight: no significant body weight loss
Eμ-Myc/+ lymphoma cells; both dose groups
  tolerability: well tolerated
Eμ-Myc/+ lymphoma cells; n = 5 per group
  survival of tumor-bearing mice: dramatically prolonged survival
[3]; [8]
  rebinding to stalled eEF1A-ribosome complex relative to SS-A3: twice as fast
  rebinding to stalled eEF1A-ribosome complex relative to ternatin-4: four times as fast
[3]; washout into drug-free buffer
  residence time longer than ternatin-4 or SS-A3: about 60%
[4]
  aa-tRNA accommodation: strongly inhibited

## C=C[C@H](C)C[C@@H]1NC(=O)[C@H]([C@@H](O)C(C)C)N(C)C(=O)[C@H](C)N(C)C(=O)[C@@H]([C@@H](C)CC)NC(=O)[C@@H]([C@H](O)C(C)C)NC(=O)[C@H]2CCCCN2C(=O)[C@H](C)N(C)C1=O [SS-A3]
HCT116 cells [5]
  potency in protein synthesis inhibition compared with SR-A3: slightly less potent
HCT116 cells [6]
  fold less potent than SR-A3 (HCT116 proliferation IC50): ~ 3 fold
[4]
  aa-tRNA accommodation: strongly inhibited

## ternatin-4 (peptide)
[7]
  residence time: 56 s

## ternatin-4 [reference compound]
HCT116 cells [5]
  potency in protein synthesis inhibition compared with SR-A3: behaved identically
[4]
  aa-tRNA accommodation: strongly inhibited
